The nature of one data set: in vitro. The note with it: pig.
The subject of a further data set is TBEV (strain Hypr). Briefly: microbe, parasite or virus in culture. The note with it: for EC50: Tick-borne encephalitis virus, 48 h, read-out: EC50, anti-TBEV activity. In kind it is cell-based, tick-borne encephalitis virus.
Data set [1] has as its system SARS-CoV-2. As to the kind of experiment: SARS-CoV-2 yield reduction assay (plaque assay) in VERO-E6 cells. Format: cell-based. The settings on record: MOI 0.04, 3 days.
Data set [2] concerns the target T1, SARS-CoV-2 RdRp (nsp7, nsp8 and nsp12) (Severe acute respiratory syndrome coronavirus 2, UniProt P0DTD1).
T1 construct: except for the full length nsp12 protein, which was expressed in insect cells; His6 (C); made in house; host or cells: nsp12 in insect cells; nsp7 and nsp8 in E. coli BL-21 CodonPlus (DE3)-RIL
In kind it is biochemical.

For data set [3], the system named is SARS-CoV-2. As to the kind of experiment: Anti-SARS-CoV-2 immunofluorescence assay (IFA) in Caco-2 cells. Format: cell-based. The settings on record: Severe acute respiratory syndrome coronavirus 2, MOI 0.002, read-out: EC50, inhibition of SARS-CoV-2 replication (nucleoprotein IFA).
For data set [4], the system named is SARS-CoV-2. As to the kind of experiment: Anti-SARS-CoV-2 immunofluorescence assay (IFA) in VERO-E6 cells. In kind it is cell-based. The note with it: Severe acute respiratory syndrome coronavirus 2, Vero C1008, 72 h, MOI 0.02, 3 days, read-out: EC50, inhibition of SARS-CoV-2 (nucleoprotein IFA).
For a further data set, the system named is VERO-E6 cells. Briefly: Cytotoxicity (XTT) in VERO-E6 cells. The note with it: 3 days.
Data set [5] has as its system SARS-CoV-2. As to the kind of experiment: Anti-SARS-CoV-2 cytopathic effect (CPE)-based assay in Calu-3 cells. The note with it: Severe acute respiratory syndrome coronavirus 2, 72 h, MOI 0.04, 3 days, XTT, read-out: EC50, inhibition of virus-induced CPE. In kind it is cell-based.
Data set [6] can be described thus: Cytotoxicity (XTT) in Calu-3 cells. The note with it: human.
The test system of a further data set is Calu-3 cells. As to the kind of experiment: Cytotoxicity (XTT) in Calu-3 cells.
Data set [7] concerns SARS-CoV-2. Format: cell-based.
For a further data set, the target named is TBEV RdRp (Tick-borne encephalitis virus, UniProt Q01299). As to the kind of experiment: biochemical.
The next data set deals with NTAV RdRp (Ntaya virus, UniProt K0BRZ6). Briefly: Radioactive polymerase assay (IC50), NTAV RdRp. Format: biochemical. The settings on record: radioactively labeled elongation products, [α-32P]-ATP, hairpin RNA.
The target of another data set is T2, JEV RdRp (Japanese encephalitis virus, UniProt P32886).
T2 construct: NS5 proteins and SARS-CoV-2 nsp12, nsp8 and nsp7 were expressed with appropriate purification and folding tags; His6-TEV site (N); made in house; host or cells: E. coli BL-21 CodonPlus (DE3)-RIL
Briefly: biochemical.

The target of another data set is YFV RdRp (Yellow fever virus, UniProt P03314). Briefly: biochemical.
The next data set has as its target T3, WNV RdRp (West Nile virus, UniProt Q9Q6P4).
T3 construct: NS5 proteins and SARS-CoV-2 nsp12, nsp8 and nsp7 were expressed with appropriate purification and folding tags; His6-TEV site (N); made in house; host or cells: E. coli BL-21 CodonPlus (DE3)-RIL
Briefly: biochemical.

The target in another data set is ZIKV RdRp (Zika virus, UniProt A0A1L5YKZ2). Briefly: Radioactive polymerase assay (IC50), ZIKV RdRp. Format: biochemical. The note with it: radioactively labeled elongation products, [α-32P]-ATP, hairpin RNA.
For the next data set, the system named is Caco-2 cells. Briefly: Cytotoxicity (XTT) in Caco-2 cells.
Data set [8] in a line: Cytotoxicity (XTT) in Caco-2 cells. The note with it: human.
The next data set addresses T4, SARS-CoV-2 RdRp (Severe acute respiratory syndrome coronavirus 2, UniProt P0DTD1).
T4 construct: except for the full length nsp12 protein, which was expressed in insect cells; His6 (C); made in house; host or cells: nsp12 in insect cells; nsp7 and nsp8 in E. coli BL-21 CodonPlus (DE3)-RIL
Briefly: biochemical.

The test system of a further data set is flaviviral RdRp. Format: biochemical, Flaviviridae (JEV, NTAV, TBEV, YFV, ZIKV).

From publication PMC8953834, “A Helquat-like Compound as a Potent Inhibitor of Flaviviral and Coronaviral Polymerases” (Molecules, 2022) come the findings set out here.

Chain of TBEV RdRp (Q01299 2512-3414 limits assumed): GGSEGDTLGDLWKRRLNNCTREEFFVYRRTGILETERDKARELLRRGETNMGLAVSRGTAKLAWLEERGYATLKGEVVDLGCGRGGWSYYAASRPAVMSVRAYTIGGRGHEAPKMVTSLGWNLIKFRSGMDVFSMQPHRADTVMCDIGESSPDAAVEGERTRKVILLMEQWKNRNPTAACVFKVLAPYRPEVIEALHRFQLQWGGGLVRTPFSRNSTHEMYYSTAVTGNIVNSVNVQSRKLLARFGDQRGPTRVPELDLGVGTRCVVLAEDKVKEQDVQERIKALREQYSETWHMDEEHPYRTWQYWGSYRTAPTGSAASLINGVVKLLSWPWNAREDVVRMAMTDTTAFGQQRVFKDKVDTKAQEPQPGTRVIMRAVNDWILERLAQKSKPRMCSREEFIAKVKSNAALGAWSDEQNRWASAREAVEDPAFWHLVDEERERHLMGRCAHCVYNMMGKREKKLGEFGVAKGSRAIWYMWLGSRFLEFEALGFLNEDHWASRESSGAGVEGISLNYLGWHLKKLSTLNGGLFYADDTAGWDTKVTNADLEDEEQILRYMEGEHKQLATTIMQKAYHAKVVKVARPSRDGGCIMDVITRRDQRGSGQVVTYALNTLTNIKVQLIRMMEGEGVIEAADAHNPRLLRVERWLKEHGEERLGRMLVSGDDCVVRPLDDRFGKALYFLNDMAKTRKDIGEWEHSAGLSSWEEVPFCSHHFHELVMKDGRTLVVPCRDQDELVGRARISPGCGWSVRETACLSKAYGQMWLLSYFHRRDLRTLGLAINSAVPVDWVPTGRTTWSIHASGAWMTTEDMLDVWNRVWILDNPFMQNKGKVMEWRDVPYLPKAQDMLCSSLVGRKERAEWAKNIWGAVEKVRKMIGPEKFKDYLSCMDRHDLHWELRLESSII
Chain of NTAV RdRp (K0BRZ6 2523-3427): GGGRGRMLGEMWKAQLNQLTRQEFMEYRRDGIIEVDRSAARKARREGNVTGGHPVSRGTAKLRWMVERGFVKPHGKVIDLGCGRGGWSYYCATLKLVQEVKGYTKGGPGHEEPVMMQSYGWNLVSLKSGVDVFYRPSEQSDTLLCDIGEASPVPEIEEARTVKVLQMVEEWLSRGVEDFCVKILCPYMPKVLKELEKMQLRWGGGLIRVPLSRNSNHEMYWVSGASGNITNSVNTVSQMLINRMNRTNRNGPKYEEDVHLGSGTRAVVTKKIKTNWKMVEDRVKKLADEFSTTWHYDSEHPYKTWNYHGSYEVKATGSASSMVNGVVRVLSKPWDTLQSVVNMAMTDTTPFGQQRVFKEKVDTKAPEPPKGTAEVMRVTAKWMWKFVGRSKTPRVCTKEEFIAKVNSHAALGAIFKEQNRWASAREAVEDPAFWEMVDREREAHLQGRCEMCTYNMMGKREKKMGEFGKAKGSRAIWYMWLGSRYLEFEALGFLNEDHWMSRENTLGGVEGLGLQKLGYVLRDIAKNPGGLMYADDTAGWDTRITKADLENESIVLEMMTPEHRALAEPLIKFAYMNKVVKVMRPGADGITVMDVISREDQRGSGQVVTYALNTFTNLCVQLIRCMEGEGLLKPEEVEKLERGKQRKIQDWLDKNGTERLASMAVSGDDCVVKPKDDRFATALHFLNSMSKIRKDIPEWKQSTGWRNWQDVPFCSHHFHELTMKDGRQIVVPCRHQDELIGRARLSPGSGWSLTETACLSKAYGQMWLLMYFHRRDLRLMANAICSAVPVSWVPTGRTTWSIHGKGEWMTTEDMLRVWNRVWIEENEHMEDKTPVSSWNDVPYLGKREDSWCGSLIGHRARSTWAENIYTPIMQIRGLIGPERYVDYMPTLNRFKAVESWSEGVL
T2 sequence (P32886 2528-3432 limits assumed): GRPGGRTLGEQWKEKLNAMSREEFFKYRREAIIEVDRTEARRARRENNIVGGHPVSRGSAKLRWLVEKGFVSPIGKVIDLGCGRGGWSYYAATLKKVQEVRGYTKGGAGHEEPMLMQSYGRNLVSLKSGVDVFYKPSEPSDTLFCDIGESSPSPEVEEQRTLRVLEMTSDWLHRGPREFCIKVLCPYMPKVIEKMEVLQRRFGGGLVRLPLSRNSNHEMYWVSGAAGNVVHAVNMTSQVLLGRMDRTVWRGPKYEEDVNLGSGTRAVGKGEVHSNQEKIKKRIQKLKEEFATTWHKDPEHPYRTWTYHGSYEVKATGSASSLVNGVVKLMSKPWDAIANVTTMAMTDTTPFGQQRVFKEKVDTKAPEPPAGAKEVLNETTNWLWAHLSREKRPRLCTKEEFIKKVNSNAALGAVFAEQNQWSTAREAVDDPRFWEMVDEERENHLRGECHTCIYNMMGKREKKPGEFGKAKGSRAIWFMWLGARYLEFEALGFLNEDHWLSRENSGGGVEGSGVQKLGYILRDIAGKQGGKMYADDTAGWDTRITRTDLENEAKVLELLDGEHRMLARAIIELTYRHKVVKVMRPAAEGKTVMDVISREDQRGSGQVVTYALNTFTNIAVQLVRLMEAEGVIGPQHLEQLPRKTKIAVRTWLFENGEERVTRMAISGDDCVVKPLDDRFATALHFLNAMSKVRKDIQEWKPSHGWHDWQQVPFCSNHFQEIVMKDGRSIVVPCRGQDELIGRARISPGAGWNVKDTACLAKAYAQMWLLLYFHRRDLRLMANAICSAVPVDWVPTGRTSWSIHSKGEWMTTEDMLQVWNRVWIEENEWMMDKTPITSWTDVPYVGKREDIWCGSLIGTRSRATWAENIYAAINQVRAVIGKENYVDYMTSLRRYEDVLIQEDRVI
Chain of ZIKV RdRp (A0A1L5YKZ2 2521-3423): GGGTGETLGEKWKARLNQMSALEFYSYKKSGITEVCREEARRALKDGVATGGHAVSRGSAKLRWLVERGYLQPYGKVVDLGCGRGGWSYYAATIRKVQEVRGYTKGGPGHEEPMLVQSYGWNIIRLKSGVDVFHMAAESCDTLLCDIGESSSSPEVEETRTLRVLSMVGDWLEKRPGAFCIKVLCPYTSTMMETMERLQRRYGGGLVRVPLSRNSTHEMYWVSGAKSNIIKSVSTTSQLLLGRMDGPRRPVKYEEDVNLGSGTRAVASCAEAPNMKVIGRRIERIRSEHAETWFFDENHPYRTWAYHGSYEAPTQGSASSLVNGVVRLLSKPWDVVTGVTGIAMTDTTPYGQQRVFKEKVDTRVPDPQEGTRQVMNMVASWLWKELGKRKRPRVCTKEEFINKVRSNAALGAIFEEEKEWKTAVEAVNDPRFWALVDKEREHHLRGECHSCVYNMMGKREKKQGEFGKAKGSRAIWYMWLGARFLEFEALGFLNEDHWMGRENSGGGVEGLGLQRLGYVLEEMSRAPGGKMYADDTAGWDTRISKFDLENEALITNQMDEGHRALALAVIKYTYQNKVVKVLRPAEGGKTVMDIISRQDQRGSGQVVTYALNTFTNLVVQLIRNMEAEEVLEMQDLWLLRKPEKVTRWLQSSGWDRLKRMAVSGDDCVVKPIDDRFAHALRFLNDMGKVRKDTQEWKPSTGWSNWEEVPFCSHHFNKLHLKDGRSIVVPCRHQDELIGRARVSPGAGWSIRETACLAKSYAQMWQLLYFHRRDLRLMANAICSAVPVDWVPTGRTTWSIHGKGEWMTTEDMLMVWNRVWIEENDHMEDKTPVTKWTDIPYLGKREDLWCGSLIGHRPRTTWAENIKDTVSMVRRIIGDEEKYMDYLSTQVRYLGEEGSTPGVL
T3 sequence (Q9Q6P4 2529-3433 limits assumed): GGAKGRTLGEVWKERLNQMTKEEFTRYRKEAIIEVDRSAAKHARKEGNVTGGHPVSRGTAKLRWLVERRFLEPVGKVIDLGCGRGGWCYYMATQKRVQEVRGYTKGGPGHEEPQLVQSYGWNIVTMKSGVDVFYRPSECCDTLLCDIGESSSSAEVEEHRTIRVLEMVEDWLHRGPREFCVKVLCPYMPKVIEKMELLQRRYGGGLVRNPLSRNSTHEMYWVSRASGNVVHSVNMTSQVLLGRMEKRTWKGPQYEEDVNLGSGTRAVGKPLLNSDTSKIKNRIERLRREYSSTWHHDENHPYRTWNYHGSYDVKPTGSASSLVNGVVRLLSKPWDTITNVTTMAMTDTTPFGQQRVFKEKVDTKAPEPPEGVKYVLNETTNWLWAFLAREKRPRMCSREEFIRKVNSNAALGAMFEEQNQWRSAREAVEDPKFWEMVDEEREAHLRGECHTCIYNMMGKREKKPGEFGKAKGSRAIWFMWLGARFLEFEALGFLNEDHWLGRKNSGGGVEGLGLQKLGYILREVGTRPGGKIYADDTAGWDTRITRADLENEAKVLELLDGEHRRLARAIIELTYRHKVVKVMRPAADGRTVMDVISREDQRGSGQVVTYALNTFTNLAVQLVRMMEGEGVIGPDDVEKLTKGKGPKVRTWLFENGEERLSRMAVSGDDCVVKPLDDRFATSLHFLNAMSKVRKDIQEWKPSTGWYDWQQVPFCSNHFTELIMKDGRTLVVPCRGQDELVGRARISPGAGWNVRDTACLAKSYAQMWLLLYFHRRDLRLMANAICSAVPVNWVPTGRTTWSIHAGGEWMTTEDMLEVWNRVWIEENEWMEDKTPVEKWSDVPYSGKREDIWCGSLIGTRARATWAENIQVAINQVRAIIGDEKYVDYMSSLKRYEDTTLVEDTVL

Molecule `C[C@@]1(O)[C@H](O)[C@@H](CO)O[C@H]1n1ccc2c(N)ncnc21` [7-deaza-2′-CMA, 7-deaza-2′-C-methyladenosine, reference compound] displayed a CC50 in “in vitro” of over 50 µM. The EC50 with TBEV (strain Hypr) amounted to 0.43 ± 0.06 µM.
Regarding `Cc1c(C)c2c(c3c1CC[n+]1ccc(/C=C4\Sc5ccccc5N4C)cc1-3)-c1cccc(/C=C3\Sc4ccccc4N3C)[n+]1CC2` [PR673], the “activity compared with remdesivir in yield reduction assay” value in the data set on SARS-CoV-2 [1] is recorded as “much less active than the COVID-19 drug remdesivir”. Moreover, the “reduction in viral plaques” value in the data set with SARS-CoV-2 [1] (at 50 µM) worked out at 58%. In addition, the “PR673 concentration at which synthesis of RNA was totally blocked” value in data set [2] is listed as “above 12.5 µM”. Moreover, the EC50 was 17 µM in the data set on SARS-CoV-2 [3], 29 µM with SARS-CoV-2 [4], 18 µM with SARS-CoV-2 [5] and 0.11 µM in the data set with TBEV (strain Hypr). The CC50 in “in vitro” was over 50 µM. Also, the cell toxicity entry with VERO-E6 cells is on record as “no cell toxicity”. For the same molecule, the CC50 at 3 days in data set [6] and in [8] was over 50 µM in each case. The “cytotoxicity at the highest used concentration” value in the data set with Calu-3 cells and in the data set with Caco-2 cells was “mild cytotoxicity” throughout. Moreover, in the data set with SARS-CoV-2 [7], the “inhibition of virus replication (virus-induced CPE) in screen” value was “inhibited the replication of the virus”. For the same molecule, the IC50 against TBEV RdRp is 3.6 ± 0.2 µM; on NTAV RdRp, 3.1 ± 0.2 µM; against JEV RdRp it was 3.9 ± 0.4 µM; on YFV RdRp, 3 ± 0.1 µM; at WNV RdRp it was 3.4 ± 0.2 µM; at ZIKV RdRp, 4.9 ± 0.5 µM. Besides, at SARS-CoV-2 RdRp, the IC50 came to 4 ± 0.2 µM. For the same molecule, the “anti-TBEV activity in comparison to 7-deaza-2′-CMA” value in the data set on TBEV (strain Hypr) was “almost four-fold higher”. Also, the “compound concentration of complete inhibition of TBEV replication” value with TBEV (strain Hypr) was found to be 0.4 µM. In addition, in the data set on flaviviral RdRp, the “inhibition of RNA synthesis by flaviviral RdRps” value is given as “strong inhibition of RNA synthesis in low micromolar concentrations”.
